Measured values: patent US12268683B2, “Compounds and methods for synergistic activation of M channels” (THE REGENTS OF THE UNIVERSITY OF CALIFORNIA, priority 2018, dated 2025)

Assays:
[1] = target: KCNQ3* (Homo sapiens, UniProt O43525, A315T); experiment: [3H]GABA competition binding to oocytes expressing KCNQ3*; settings: 100 μM, 10 μM 3H-GABA
Protocol: Each group of oocytes was placed in a round-bottomed, 15-ml falcon tube, washed with ND96, and then resuspended in ND96 containing 10 μM γ-[2,3-^3H(N)]-aminobutyric acid (^3H-GABA) (Perkin Elmer, Waltham, Mass.) at 25-40 Ci/mMol specific activity either alone, or with 100 μM 2FPG or 100 μM 3FMSG, for a 30 minute incubation at room temperature. Oocytes were then washed four times in 16° C. ND96, transferred to individual wells in a 96 well plate and lysed in 0.2% SDS in ND96. Each oocyte lysate was transferred to a scintillation vial containing 5 ml Cytoscint scintillation cocktail fluid (MP Biomedicals, Santa Ana, Calif.). Vials were capped, shaken, and then allowed to sit at room temperature for at least 30 min before scintillation counting in a Beckmann Coulter LS6500 liquid scintillation counter.

[2] = test system: bacteria; settings: read-out: bactericidal activity EC50; cited from earlier work
[3] = target: KCNQ1/KCNE1 (Homo sapiens, UniProt P51787); experiment: TEVC of KCNQ1/KCNE1 channels; assay type: cell-based
Text: (§1) As previously described (12), we generated cRNA transcripts encoding human KCNA1, KCNE1, KCNE2, KCNE3, KCNQ1, KCNQ2, KCNQ3, KCNQ4 or KCNQ5 by in vitro transcription using the T7 polymerase mMessage mMachine kit (Thermo Fisher Scientific), after vector linearization, from cDNA sub-cloned into plasmids incorporating Xenopus laevis β-globin 5′ and 3′ UTRs flanking the coding region to enhance translation and cRNA stability. We quantified cRNA by spectrophotometry. We generated mutant KCNQ2 and KCNQ3 cDNAs by site-directed mutagenesis with a QuikChange kit (Stratagene, San Diego, Calif.) and prepared the cRNAs as above. We injected defolliculated stage V and VI Xenopus laevis oocytes (Ecocyte Bioscience, Austin, Tex. and Xenoocyte, Dexter, Mich., US) with KCNE and/or KCNQ cRNAs (5-20 ng). […]
(§2) We performed TEVC at room temperature using an OC-725C amplifier (Warner Instruments, Hamden, Conn.) and pClamp10 software (Molecular Devices, Sunnyvale, Calif.) 2-5 days after cRNA injection as described in the section above. […] We recorded currents in response to voltage pulses between −120 or −80 mV and +40 mV at 20 mV intervals from a holding potential of −80 mV, to yield current-voltage relationships, current magnitude, and for quantifying activation rate. We analyzed data using Clampfit (Molecular Devices) and Graphpad Prism software (GraphPad, San Diego, Calif., USA); values are stated as mean±SEM. […]

[4] = target: KCNQ2/KCNQ3-R242A (Homo sapiens, UniProt O43525+O43526, R242A); experiment: TEVC of KCNQ2/KCNQ3-R242A channels; assay type: cell-based
Text: as §1, §2

[5] = target: KCNA1 (Homo sapiens, UniProt Q09470); experiment: TEVC of KCNA1 expressed in Xenopus oocytes; assay type: cell-based
Sequence of KCNA1 (Q09470 whole entry): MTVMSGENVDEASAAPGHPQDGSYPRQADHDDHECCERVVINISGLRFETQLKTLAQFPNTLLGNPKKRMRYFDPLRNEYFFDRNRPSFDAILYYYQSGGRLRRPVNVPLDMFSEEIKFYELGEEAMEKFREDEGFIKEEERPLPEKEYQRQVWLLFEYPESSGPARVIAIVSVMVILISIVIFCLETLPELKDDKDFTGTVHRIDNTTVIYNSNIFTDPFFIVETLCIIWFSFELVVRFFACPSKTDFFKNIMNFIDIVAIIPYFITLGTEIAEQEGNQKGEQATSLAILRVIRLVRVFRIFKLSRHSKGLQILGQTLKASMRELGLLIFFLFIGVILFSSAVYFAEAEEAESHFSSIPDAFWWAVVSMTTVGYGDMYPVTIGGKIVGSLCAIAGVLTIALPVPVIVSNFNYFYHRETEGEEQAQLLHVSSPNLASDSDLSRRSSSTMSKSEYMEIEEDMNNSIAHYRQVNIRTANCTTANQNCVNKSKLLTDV
Text: cRNA transcripts encoding human KCNA1, KCNQ1, KCNQ2, KCNQ3, KCNQ4, or KCNQ5 were generated by in vitro transcription using the T7 polymerase message machine kit (Thermo Fisher Scientific), after vector linearization, from cDNA sub-cloned into plasmids incorporating X. laevis β-globin 5′ and 3′ UTRs flanking the coding region to enhance translation and cRNA stability. cRNA was quantified by spectrophotometry. Mutant cDNAs were generated by site-directed mutagenesis using a QuikChange kit according to manufacturer's protocol (Stratagene, San Diego, Calif.) and corresponding cRNAs prepared as above. Defolliculated stage V and VI X. laevis oocytes (Ecocyte Bioscience, Austin, Tex.) were injected with Kv channel a subunit cRNAs (10 ng total per oocyte). […]
TEVC recording was performed at room temperature with an OC-725C amplifier (Warner Instruments, Hamden, Conn.) and pClamp10.2 software (Molecular Devices, Sunnyvale, Calif.) 3-5 days after cRNA injection as described in the section above. […] Currents were recorded in response to pulses between −80 and +40 mV at 20 mV intervals, or a single pulse to +40 mV, from a holding potential of −80 mV, to yield current-voltage relationships, current magnitude, and for quantifying activation rate. […]

CS(=O)(=O)N(CC(=O)O)c1cccc(F)c1 [3FMSG]
competition with [3H]GABA binding to KCNQ3* [1]: able to compete out GABA binding

CCCCCCCCC/C=C/C=O [(E)-2-dodecenal]
EC50 [2]: > 30000 nM | sensitivity of KCNQ1-KCNE1, fold less sensitive than KCNQ1 [3]: > twofold | EC50 ([3]; read-out: EC50 of KCNQ1/KCNE1 activation): 260 ± 100 nM | response of KCNQ2/KCNQ3-R242A (in words) [4]: almost as much as wild-type KCNQ2/3

CC(=O)c1c(O)c(C)c(O)c(Cc2c(O)c3c(c(C(=O)/C=C/c4ccccc4)c2O)OC(C)(C)C=C3)c1O [MTX, mallotoxin]
effect on KCNA1 (in words) [5]: no effect
